Laboratory results as given in patent US20250289802A1, “3-(1-OXO-5-(PIPERIDIN-4-YL)ISOINDOLIN-2-YL)PIPERIDINE-2,6-DIONE DERIVATIVES AND USES THEREOF” (NOVARTIS AG, priority 2019, published 2025).

Molecular target: IKZF2 (Helios) (Homo sapiens, UniProt Q96SW2+Q9UKS7)
Test: Prolabel quantification of IKZF2 protein levels in 293GT cells
Format: cell-based
Details: not given
Method: The Prolabel system from DiscoverX was used to develop high-throughput and quantitative assays to measure changes in IKZF1 and IKZF2 protein levels in response to compounds. The prolabel tag was derived from the alpha fragment of beta galactosidase and has the following protein sequence: mssnslavvlqrrdwenpgvtglnrlaahppfaswrnseeartdrpsqqlrsinge. The complementary fragment of beta-galactosidase (from DiscoverX), is added to the prolabel tag to form an active beta galactosidase enzyme whose activity can be precisely measured. In this way, the levels of a fusion protein with the prolabel tag can be quantified in cell lysates.
Lentiviral vectors, based on the Invitrogen pLenti6.2/V5 DEST backbone, were constructed that placed the prolabel tag upstream of IKZF1, IKZF2 or GSPT1 and expressed the fusion protein from a CMV promoter.
To ensure moderate and consistent expression of the prolabel fusion proteins across all cells in the population, stable cell lines were constructed from cells expressing a single copy of the construct. Lentivirus packaged with the constructs was made using the Virapower kit from Invitrogen.
The levels of prolabel tagged fusion proteins in compound treated cell lines were measured as follows: Day 1, Cells were diluted to 1.0×10^6 cells/ml in normal growth medium. 17.5 μL of cells were plated in each well of a solid white 384 well plate. Plates were incubated overnight in a 37° C. tissue culture incubator.
Day 2, Serial dilutions of compounds were made in 384 well plates from 10 mM stocks. 15 μL of DMSO was added to each well of a 384 well plate. In the first column, 15 μL of stock compound was added. The solution was mixed and 15 μL was transferred to the next column. This was repeated until 20 two-fold dilutions were prepared. 2.5 μL of diluted compounds were transferred into 60 μL of cell culture medium in another 384 well plate, and mixed well. 2.5 μL of this mixture was added to the plated cells. The final DMSO concentration was 0.5% and the highest concentration of compound was 50 μM. Plates were incubated overnight (e.g., about 14 h, 18 h, or 24 h) in a 37° C. tissue culture incubator.
Day 3, Plates were removed from the incubator and allowed to equilibrate at rt for 30 minutes. Prolabel substrate (DiscoverX PathHunter Prolabel Detection Kit, User manual: 93-0180) was added as described by the manufacturers protocols. Plates were incubated at rt for three hours and luminescence was read using an Envision reader (Perkin Elmer) Data was analyzed and visualized using the Spotfire software package.

Chain of IKZF2 (Helios) (Q9UKS7 whole entry): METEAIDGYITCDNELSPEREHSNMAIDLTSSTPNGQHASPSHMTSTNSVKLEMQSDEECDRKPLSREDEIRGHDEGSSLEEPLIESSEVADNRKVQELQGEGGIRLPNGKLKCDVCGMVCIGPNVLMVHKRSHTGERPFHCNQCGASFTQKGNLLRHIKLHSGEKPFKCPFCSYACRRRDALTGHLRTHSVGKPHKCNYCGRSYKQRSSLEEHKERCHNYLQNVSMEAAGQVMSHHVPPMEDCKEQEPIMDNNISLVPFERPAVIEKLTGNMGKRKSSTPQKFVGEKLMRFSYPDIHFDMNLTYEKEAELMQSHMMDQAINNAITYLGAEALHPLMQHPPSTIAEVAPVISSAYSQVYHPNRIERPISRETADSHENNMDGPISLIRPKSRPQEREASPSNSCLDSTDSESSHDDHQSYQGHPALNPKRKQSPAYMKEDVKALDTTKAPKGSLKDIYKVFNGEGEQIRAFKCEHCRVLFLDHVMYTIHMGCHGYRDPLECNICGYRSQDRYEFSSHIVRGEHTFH
Chain of IKZF2 (Helios) (Q96SW2 whole entry): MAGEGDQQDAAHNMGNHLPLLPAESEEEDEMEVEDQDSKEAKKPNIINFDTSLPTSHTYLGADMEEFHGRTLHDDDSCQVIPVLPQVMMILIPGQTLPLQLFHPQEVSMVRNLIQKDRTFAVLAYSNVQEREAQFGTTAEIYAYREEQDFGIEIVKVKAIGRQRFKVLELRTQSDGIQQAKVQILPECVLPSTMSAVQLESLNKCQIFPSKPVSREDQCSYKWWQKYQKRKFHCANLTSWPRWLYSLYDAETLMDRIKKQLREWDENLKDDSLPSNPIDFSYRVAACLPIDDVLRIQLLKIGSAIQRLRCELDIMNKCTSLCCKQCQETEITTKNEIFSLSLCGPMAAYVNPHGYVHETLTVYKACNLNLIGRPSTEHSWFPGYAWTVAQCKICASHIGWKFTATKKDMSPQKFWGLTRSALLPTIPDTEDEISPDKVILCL
Chain of IKZF2 (Helios) (Q16531 whole entry partner): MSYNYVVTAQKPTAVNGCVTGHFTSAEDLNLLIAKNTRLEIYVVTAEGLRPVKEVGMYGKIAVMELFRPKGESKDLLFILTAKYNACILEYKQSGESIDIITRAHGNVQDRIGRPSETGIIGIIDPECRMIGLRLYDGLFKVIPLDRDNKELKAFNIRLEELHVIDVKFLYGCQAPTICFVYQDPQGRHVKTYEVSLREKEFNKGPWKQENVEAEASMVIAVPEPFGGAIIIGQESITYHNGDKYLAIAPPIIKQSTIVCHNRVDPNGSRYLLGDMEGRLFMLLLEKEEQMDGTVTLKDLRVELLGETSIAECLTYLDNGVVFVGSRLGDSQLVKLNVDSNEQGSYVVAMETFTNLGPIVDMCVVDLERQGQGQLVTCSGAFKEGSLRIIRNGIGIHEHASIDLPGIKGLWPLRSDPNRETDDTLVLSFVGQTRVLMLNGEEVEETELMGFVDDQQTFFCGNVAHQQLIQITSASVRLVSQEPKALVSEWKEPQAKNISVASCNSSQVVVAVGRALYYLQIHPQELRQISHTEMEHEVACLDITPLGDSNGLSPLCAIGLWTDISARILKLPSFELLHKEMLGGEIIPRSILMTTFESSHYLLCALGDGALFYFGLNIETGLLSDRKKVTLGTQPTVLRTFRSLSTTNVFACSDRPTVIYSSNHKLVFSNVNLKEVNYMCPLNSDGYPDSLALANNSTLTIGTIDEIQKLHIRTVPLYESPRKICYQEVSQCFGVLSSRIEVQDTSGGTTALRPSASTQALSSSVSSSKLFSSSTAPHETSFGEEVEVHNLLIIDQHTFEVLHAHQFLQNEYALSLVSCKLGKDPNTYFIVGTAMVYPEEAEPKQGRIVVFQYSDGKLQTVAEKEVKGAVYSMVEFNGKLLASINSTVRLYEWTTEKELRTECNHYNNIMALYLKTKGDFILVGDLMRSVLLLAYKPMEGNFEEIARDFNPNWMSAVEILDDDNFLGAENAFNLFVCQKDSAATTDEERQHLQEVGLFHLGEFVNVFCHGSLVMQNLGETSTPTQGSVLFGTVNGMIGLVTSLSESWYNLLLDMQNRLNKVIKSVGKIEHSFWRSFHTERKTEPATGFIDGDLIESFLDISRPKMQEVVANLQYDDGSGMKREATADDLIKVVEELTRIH

Compound	IKZF2 % protein reduction at 10 μM, 24 h [%]	IKZF2 % protein reduction at 30 uM [% at]
O=C1CCC(N2Cc3cc(C4CCN(Cc5ccc(=O)[nH]c5)CC4)ccc3C2=O)C(=O)N1 (centres unmarked) [Compound I-1, 3-(1-oxo-5-(1-((6-oxo-1,6-dihydropyridin-3-yl)methyl)piperidin-4-yl)isoindolin-2-yl)piperidine-2,6-dione]	70	
CC1CC(c2ccc3c(c2)CN(C2CCC(=O)NC2=O)C3=O)CC(C)N1Cc1ccccc1 (centres unmarked) [Compound I-2, 3-(5-(1-benzyl-2,6-dimethylpiperidin-4-yl)-1-oxoisoindolin-2-yl)piperidine-2,6-dione]		35

Same assay, conditions: 10 μM, 24 h, 293GT cells

Compound	IKZF2 % protein reduction at 10 μM, 24 h [%]
CCOc1ccc(CN2CCC(c3ccc4c(c3)CN(C3CCC(=O)NC3=O)C4=O)CC2)nc1 (centres unmarked) [Compound I-5, 3-(5-(1-((5-ethoxypyridin-2-yl)methyl)piperidin-4-yl)-1-oxoisoindolin-2-yl)piperidine-2,6-dione]	60
COc1ccc(CN2CCC(c3ccc4c(c3)CN(C3CCC(=O)NC3=O)C4=O)CC2)nc1 (centres unmarked) [Compound I-6, 3-(5-(1-((5-methoxypyridin-2-yl)methyl)piperidin-4-yl)-1-oxoisoindolin-2-yl)piperidine-2,6-dione]	50
COc1ccc(CN2CCC(c3ccc4c(c3)CN(C3CCC(=O)NC3=O)C4=O)CC2)cn1 (centres unmarked) [Compound I-7, 3-(5-(1-((6-methoxypyridin-3-yl)methyl)piperidin-4-yl)-1-oxoisoindolin-2-yl)piperidine-2,6-dione]	80
CCOc1ccc(CN2CCC(c3ccc4c(c3)CN(C3CCC(=O)NC3=O)C4=O)CC2)cn1 (centres unmarked) [Compound I-8, 3-(5-(1-((6-ethoxypyridin-3-yl)methyl)piperidin-4-yl)-1-oxoisoindolin-2-yl)piperidine-2,6-dione]	70
O=C1CCC(N2Cc3cc(C4CCN(CCn5cccn5)CC4)ccc3C2=O)C(=O)N1 (centres unmarked) [Compound I-11, 3-(5-(1-(2-(1H-pyrazol-1-yl)ethyl)piperidin-4-yl)-1-oxoisoindolin-2-yl)piperidine-2,6-dione]	60
O=C1CCC(N2Cc3cc(C4CCN(Cc5cccnn5)CC4)ccc3C2=O)C(=O)N1 (centres unmarked) [Compound I-15, 3-(1-oxo-5-(1-(pyridazin-3-ylmethyl)piperidin-4-yl)isoindolin-2-yl)piperidine-2,6-dione]	40
O=C1CCC(N2Cc3cc(C4CCN(Cc5ccncn5)CC4)ccc3C2=O)C(=O)N1 (centres unmarked) [Compound I-16, 3-(1-oxo-5-(1-(pyrimidin-4-ylmethyl)piperidin-4-yl)isoindolin-2-yl)piperidine-2,6-dione]	50
Cc1ncc(CN2CCC(c3ccc4c(c3)CN(C3CCC(=O)NC3=O)C4=O)CC2)cn1 (centres unmarked) [Compound I-17, 3-(5-(1-((2-methylpyrimidin-5-yl)methyl)piperidin-4-yl)-1-oxoisoindolin-2-yl)piperidine-2,6-dione]	50
CCn1cc(C(C)N2CCC(c3ccc4c(c3)CN(C3CCC(=O)NC3=O)C4=O)CC2)cn1 (centres unmarked) [Compound I-31, 3-(5-(1-(1-(1-ethyl-1H-pyrazol-4-yl)ethyl)piperidin-4-yl)-1-oxoisoindolin-2-yl)piperidine-2,6-dione]	70
CCC(c1cnn(CC)c1)N1CCC(c2ccc3c(c2)CN(C2CCC(=O)NC2=O)C3=O)CC1 (centres unmarked) [Compound I-32, 3-(5-(1-(1-(1-ethyl-1H-pyrazol-4-yl)propyl)piperidin-4-yl)-1-oxoisoindolin-2-yl)piperidine-2,6-dione]	62
CCC(c1cnccn1)N1CCC(c2ccc3c(c2)CN(C2CCC(=O)NC2=O)C3=O)CC1 (centres unmarked) [Compound I-33, 3-(1-oxo-5-(1-(1-(pyrazin-2-yl)propyl)piperidin-4-yl)isoindolin-2-yl)piperidine-2,6-dione]	62
O=C1CCC(N2Cc3cc(C4CCN(C5CCc6ncccc65)CC4)ccc3C2=O)C(=O)N1 (centres unmarked) [Compound I-35, 3-(5-(1-(6,7-dihydro-5H-cyclopenta[b]pyridin-5-yl)piperidin-4-yl)-1-oxoisoindolin-2-yl)piperidine-2,6-dione]	80

Second part, the compound after the results:

IKZF2 % protein reduction at 10 μM, 24 h [%]	Compound
60	N#C[C@H]1CC[C@H](CN2CCC(c3ccc4c(c3)CN(C3CCC(=O)NC3=O)C4=O)CC2)CC1 (some centres unmarked) [Compound I-3, (1r,4r)-4-((4-(2-(2,6-dioxopiperidin-3-yl)-1-oxoisoindolin-5-yl)piperidin-1-yl)methyl)cyclohexane-1-carbonitrile]
75	O=C1CCC(N2Cc3cc(C4CCN(CC5CCC(CF)CC5)CC4)ccc3C2=O)C(=O)N1 (centres unmarked) [Compound I-10, 3-(5-(1-((4-(fluoromethyl)cyclohexyl)methyl)piperidin-4-yl)-1-oxoisoindolin-2-yl)piperidine-2,6-dione]
80	CC1=CCC(CN2CCC(c3ccc4c(c3)CN(C3CCC(=O)NC3=O)C4=O)CC2)CC1 (centres unmarked) [Compound I-13, 3-(5-(1-((4-methylcyclohex-3-en-1-yl)methyl)piperidin-4-yl)-1-oxoisoindolin-2-yl)piperidine-2,6-dione]
55	O=C1CCC(N2Cc3cc(C4CCN(Cc5cnccn5)CC4)ccc3C2=O)C(=O)N1 (centres unmarked) [Compound I-14, 3-(1-oxo-5-(1-(pyrazin-2-ylmethyl)piperidin-4-yl)isoindolin-2-yl)piperidine-2,6-dione]
40	O=C1CCC(N2Cc3cc(C4CCN(Cc5ccnnc5)CC4)ccc3C2=O)C(=O)N1 (centres unmarked) [Compound I-18, 3-(1-oxo-5-(1-(pyridazin-4-ylmethyl)piperidin-4-yl)isoindolin-2-yl)piperidine-2,6-dione]
80	CC(C1CCOCC1)N1CCC(c2ccc3c(c2)CN(C2CCC(=O)NC2=O)C3=O)CC1 (centres unmarked) [Compound I-30, 3-(1-oxo-5-(1-(1-(tetrahydro-2H-pyran-4-yl)ethyl)piperidin-4-yl)isoindolin-2-yl)piperidine-2,6-dione]
74	COC1CCC(N2CCC(c3ccc4c(c3)CN(C3CCC(=O)NC3=O)C4=O)CC2)CC1 (centres unmarked) [Compound I-36, 3-(5-(1-(4-methoxycyclohexyl)piperidin-4-yl)-1-oxoisoindolin-2-yl)piperidine-2,6-dione]

Molecular target: T1, human TGF-β2 (Homo sapiens, UniProt P61812)
T1 sequence (P61812 303-414 limits assumed): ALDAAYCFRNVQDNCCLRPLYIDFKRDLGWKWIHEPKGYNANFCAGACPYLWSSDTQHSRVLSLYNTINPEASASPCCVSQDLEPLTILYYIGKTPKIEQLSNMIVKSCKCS
Test: not given
Details: Biacore; cited from earlier work

Compound	Kd [µM]
XOMA 089: fully human monoclonal antibody that specifically binds and neutralizes TGF-beta 1 and 2 ligands	67.3

Molecular target: T2, human TGF-β3 (Homo sapiens, UniProt P10600)
T2 sequence (P10600 301-412 limits assumed): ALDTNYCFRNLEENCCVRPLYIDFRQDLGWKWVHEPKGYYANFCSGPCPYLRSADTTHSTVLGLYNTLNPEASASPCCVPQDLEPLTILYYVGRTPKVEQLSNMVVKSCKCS
Test: not given
Details: Biacore; cited from earlier work

Compound	Kd [µM]
XOMA 089: fully human monoclonal antibody that specifically binds and neutralizes TGF-beta 1 and 2 ligands	948
